Reference: ChEMBL document CHEMBL1136373, “Conformationally restricted 3,4-diarylfuranones (2,3a,4,5-tetrahydronaphthofuranones) as selective cyclooxygenase-2 inhibitors” (Bioorg Med Chem Lett, 2003)
pIC50: −log10 of the molar value.

Legend:
[1] = target: T1, Prostaglandin G/H synthase 1 (Homo sapiens, UniProt P23219); assay: In vitro inhibitory activity against recombinant human Prostaglandin G/H synthase 1
[2] = target: T2, Prostaglandin G/H synthase 2 (Homo sapiens, UniProt P35354); assay: In vitro inhibitory activity against recombinant human Prostaglandin G/H synthase 2
T2 sequence (P35354 whole entry): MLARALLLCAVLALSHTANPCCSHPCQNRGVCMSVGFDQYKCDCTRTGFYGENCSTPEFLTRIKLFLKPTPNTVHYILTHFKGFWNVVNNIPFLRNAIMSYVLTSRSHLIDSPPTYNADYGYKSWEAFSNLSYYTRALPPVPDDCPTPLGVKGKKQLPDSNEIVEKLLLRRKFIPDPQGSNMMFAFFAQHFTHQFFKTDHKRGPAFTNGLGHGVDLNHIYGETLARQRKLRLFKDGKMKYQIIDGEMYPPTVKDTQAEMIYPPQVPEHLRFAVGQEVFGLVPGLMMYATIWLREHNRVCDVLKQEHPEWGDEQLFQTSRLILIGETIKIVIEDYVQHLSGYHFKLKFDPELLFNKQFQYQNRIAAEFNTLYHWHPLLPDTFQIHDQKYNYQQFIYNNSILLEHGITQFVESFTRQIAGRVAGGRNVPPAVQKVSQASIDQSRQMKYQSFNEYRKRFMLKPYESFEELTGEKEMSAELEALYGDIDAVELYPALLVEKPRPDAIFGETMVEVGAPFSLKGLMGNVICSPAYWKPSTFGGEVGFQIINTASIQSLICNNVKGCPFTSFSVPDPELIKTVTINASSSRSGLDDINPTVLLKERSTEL

[3] = target: T1, Prostaglandin G/H synthase 1; assay: In vitro inhibitory activity against recombinant human Prostaglandin G/H synthase 1 at concentration of 100 uM
[4] = target: T1, Prostaglandin G/H synthase 1; assay: Ratio of in vitro inhibitory activity against recombinant human COX-1 to that of recombinant human COX-2

T1 sequence (P23219 whole entry): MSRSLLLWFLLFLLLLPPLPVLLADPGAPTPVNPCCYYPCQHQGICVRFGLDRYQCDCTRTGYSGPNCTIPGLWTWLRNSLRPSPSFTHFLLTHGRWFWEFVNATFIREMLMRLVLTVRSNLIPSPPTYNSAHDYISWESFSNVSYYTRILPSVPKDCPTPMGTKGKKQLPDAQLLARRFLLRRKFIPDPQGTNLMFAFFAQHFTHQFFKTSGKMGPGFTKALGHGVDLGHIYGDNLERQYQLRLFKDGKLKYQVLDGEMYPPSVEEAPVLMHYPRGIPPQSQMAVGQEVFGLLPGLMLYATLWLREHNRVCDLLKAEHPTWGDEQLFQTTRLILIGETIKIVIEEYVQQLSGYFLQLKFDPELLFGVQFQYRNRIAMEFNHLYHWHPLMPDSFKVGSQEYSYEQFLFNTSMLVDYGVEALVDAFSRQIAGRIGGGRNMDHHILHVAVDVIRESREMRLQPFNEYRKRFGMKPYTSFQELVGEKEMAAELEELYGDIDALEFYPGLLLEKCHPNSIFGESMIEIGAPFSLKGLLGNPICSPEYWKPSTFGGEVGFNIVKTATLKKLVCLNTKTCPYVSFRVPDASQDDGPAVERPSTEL

| pIC50 [1] | pIC50 [2] | inhibition [3] | Ratio [4] | SMILES |
| --- | --- | --- | --- | --- |
| 4.78 | 6.07 | 80% | – | CSc1ccc(C2=C3c4ccccc4CCC3(O)OC2=O)cc1 (stereo unspecified) |
| < 4.35 | 6.25 | 100% | – | CS(=O)(=O)c1ccc(C2=C3c4ccccc4CCC3OC2=O)cc1 (stereo unspecified) |
| < 4.52 | 6.18 | 52% | > 45.1 | Cc1ccc2c(c1)C1=C(c3ccc(S(C)(=O)=O)cc3)C(=O)OC1CC2 (stereo unspecified) |
| 7.21 | 6.01 | 100% | – | CSc1ccc(C2=C3c4cc(C)ccc4CCC3OC2=O)cc1 (stereo unspecified) |
| 4.88 | 6.17 | 97% | – | CSc1ccc(C2=C3c4cc(C)ccc4CCC3(O)OC2=O)cc1 (stereo unspecified) |
| – | – | 57% | – | CS(=O)(=O)c1ccc(C2=C3c4ccccc4CCC3(O)OC2=O)cc1 (stereo unspecified) |
| – | – | 11% | – | C[S+]([O-])c1ccc(C2=C3c4ccccc4CCC3(O)OC2=O)cc1 (stereo unspecified) |

| SMILES | pIC50 [1] | pIC50 [2] | inhibition [3] | Ratio [4] |
| --- | --- | --- | --- | --- |
| CSc1ccc(C2=C3c4ccccc4CCC3OC2=O)cc1 (stereo unspecified) | 7.28 | 6.08 | 100% | – |
